Molecular target: MTH1 (Homo sapiens, UniProt P36639)
Test: MTH1 enzymatic assay (malachite green, coupled to pyrophosphatase)
Format: biochemical
Conditions: dGTP 100 μM, MTH1 6 nM; 96- or 384-well format; read-out: IC50

Row | SMILES | IC50
1 | CNc1cc(-c2ccnn2C)nc(N)n1 [Example 465, 4-N-methyl-6-(1-methyl-1H-pyrazol-5-yl)pyrimidine-2,4-diamine] | < 200 nM
2 | Nc1nc(NCCNc2ccc(Br)cn2)cc(-c2cccc(Cl)c2Cl)n1 [Example 466, 4-N-{2-[(5-bromopyridin-2-yl)amino]ethyl}-6-(2,3-dichlorophenyl)pyrimidine-2,4-diamine] | < 200 nM
3 | CNc1cc(-c2cc[nH]c2)nc(N)n1 [Example 468, 4-N-methyl-6-(1H-pyrrol-3-yl)pyrimidine-2,4-diamine] | < 200 nM
4 | COCC(=O)NCCCCNc1cc(-c2cccc(Cl)c2Cl)nc(N)n1 [Example 469, N-(4-{[2-amino-6-(2,3-dichlorophenyl)pyrimidin-4-yl]amino}butyl)-2-methoxyacetamide] | < 200 nM
5 | Nc1nc(NCCCCNC(=O)C(F)(F)F)cc(-c2cccc(Cl)c2Cl)n1 [Example 470, N-(4-{[2-amino-6-(2,3-dichlorophenyl)pyrimidin-4-yl]amino}butyl)-2,2,2-trifluoroacetamide] | < 200 nM
6 | CS(=O)(=O)c1ccc(C(=O)NCCCCNc2cc(-c3cccc(Cl)c3Cl)nc(N)n2)cc1 [Example 471, N-(4-{[2-amino-6-(2,3-dichlorophenyl)pyrimidin-4-yl]amino}butyl)-4-methanesulfonylbenzamide] | < 200 nM
7 | Nc1nc(NCCCCNC(=O)c2ccno2)cc(-c2cccc(Cl)c2Cl)n1 [Example 472, N-(4-{[2-amino-6-(2,3-dichlorophenyl)pyrimidin-4-yl]amino}butyl)-1,2-oxazole-5-carboxamide] | < 200 nM
8 | Nc1nc(NCCCCNC(=O)c2ccc(Cl)c(Cl)c2)cc(-c2cccc(Cl)c2Cl)n1 [Example 473, N-(4-{[2-amino-6-(2,3-dichlorophenyl)pyrimidin-4-yl]amino}butyl)-3,4-dichlorobenzamide] | < 200 nM
9 | CC(C)(C)C(=O)NCCCCNc1cc(-c2cccc(Cl)c2Cl)nc(N)n1 [Example 474, N-(4-{[2-amino-6-(2,3-dichlorophenyl)pyrimidin-4-yl]amino}butyl)-2,2-dimethylpropanamide] | < 200 nM
10 | CS(=O)(=O)c1ccc(S(=O)(=O)NCCCCNc2cc(-c3cccc(Cl)c3Cl)nc(N)n2)cc1 [Example 475, N-(4-{[2-amino-6-(2,3-dichlorophenyl)pyrimidin-4-yl]amino}butyl)-4-methanesulfonylbenzene-1-sulfonamide] | < 200 nM
11 | CNc1cc(-c2ccoc2C)nc(N)n1 [Example 478, 4-N-methyl-6-(2-methylfuran-3-yl)pyrimidine-2,4-diamine] | < 200 nM
12 | CNc1cc(-c2ccc(CN3CCCC3)s2)nc(N)n1 [Example 479, 4-N-methyl-6-[5-(pyrrolidin-1-ylmethyl)thiophen-2-yl]pyrimidine-2,4-diamine] | < 200 nM
13 | Nc1nc(NCCc2ccc(Cl)cc2)cc(-c2ccccc2CO)n1 [Example 481, [2-(2-amino-6-{[2-(4-chlorophenyl)ethyl]amino}pyrimidin-4-yl)phenyl]methanol] | < 200 nM
14 | Cc1c(Cl)cccc1-c1cc(NC2CC2)nc(N)n1 [Example 482, 6-(3-chloro-2-methylphenyl)-4-N-cyclopropylpyrimidine-2,4-diamine] | < 200 nM
15 | Cc1c(Cl)cccc1-c1cc(NCCF)nc(N)n1 [Example 483, 6-(3-chloro-2-methylphenyl)-4-N-(2-fluoroethyl)pyrimidine-2,4-diamine] | < 200 nM
16 | Cc1cccc(-c2cc(NCCF)nc(N)n2)c1C [Example 484, 6-(2,3-dimethylphenyl)-4-N-(2-fluoroethyl)pyrimidine-2,4-diamine] | < 200 nM

Row | SMILES | IC50
17 | CNc1cc(-c2cnn(CCC(N)=O)c2)nc(N)n1 [Example 487, 3-{4-[2-amino-6-(methylamino)pyrimidin-4-yl]-1H-pyrazol-1-yl}propanamide] | < 200 nM
18 | COc1cc(C)c(NCCNc2cc(-c3cccc(C)c3C)nc(N)n2)cn1 [Example 490, 6-(2,3-dimethylphenyl)-4-N-{2-[(6-methoxy-4-methylpyridin-3-yl)amino]ethyl}pyrimidine-2,4-diamine] | < 200 nM
19 | NC(=O)COc1cccc(-c2cc(NCCc3ccc(Cl)cc3)nc(N)n2)c1 [Example 498, 2-[3-(2-amino-6-{[2-(4-chlorophenyl)ethyl]amino}pyrimidin-4-yl)phenoxy]acetamide] | < 200 nM
20 | Cc1cccc(-c2cc(NCCNc3cnccn3)nc(N)n2)c1C [Example 500, 6-(2,3-dimethylphenyl)-4-N-{2-[(pyrazin-2-yl)amino]ethyl}pyrimidine-2,4-diamine] | < 200 nM
21 | Cc1cccc(-c2cc(NCCNc3cc(Cl)ncn3)nc(N)n2)c1C [Example 501, 4-N-{2-[(6-chloropyrimidin-4-yl)amino]ethyl}-6-(2,3-dimethylphenyl)pyrimidine-2,4-diamine] | < 200 nM
22 | CNc1cc(-c2ccccc2CO)nc(N)n1 [Example 508, {2-[2-amino-6-(methylamino)pyrimidin-4-yl]phenyl}methanol] | < 200 nM
23 | Nc1nc(NCCc2ccc(S(N)(=O)=O)cc2)cc(-c2ccccc2CO)n1 [Example 509, 4-[2-({2-amino-6-[2-(hydroxymethyl)phenyl]pyrimidin-4-yl}amino)ethyl]benzene-1-sulfonamide] | < 200 nM
24 | Cc1cccc(-c2cc(NCCNc3cc(C(N)=O)ccn3)nc(N)n2)c1C [Example 514, 2-[(2-{[2-amino-6-(2,3-dimethylphenyl)pyrimidin-4-yl]amino}ethyl)amino]pyridine-4-carboxamide] | < 200 nM
25 | Cc1c(NC(=O)c2ccc(Cl)cc2O)cccc1-c1cc(NCCc2ccc(S(C)(=O)=O)cc2)nc(N)n1 [Example 516, N-[3-(2-amino-6-{[2-(4-methanesulfonylphenyl)ethyl]amino}pyrimidin-4-yl)-2-methylphenyl]-4-chloro-2-hydroxybenzamide] | < 200 nM
26 | Cc1cccc(-c2cc(NCCc3c[nH]c4ccc(O)cc34)nc(N)n2)c1C [Example 517, 3-(2-{[2-amino-6-(2,3-dimethylphenyl)pyrimidin-4-yl]amino}ethyl)-1H-indol-5-ol] | < 200 nM
27 | Cc1cccc(-c2cc(NCCc3c[nH]c4ccc(OCc5ccccc5)cc34)nc(N)n2)c1C [Example 518, 4-N-{2-[5-(benzyloxy)-1H-indol-3-yl]ethyl}-6-(2,3-dimethylphenyl)pyrimidine-2,4-diamine] | < 200 nM
28 | Cc1cccc(-c2cc(NCCc3c[nH]c4ccc(Br)cc34)nc(N)n2)c1C [Example 519, 4-N-[2-(5-bromo-1H-indol-3-yl)ethyl]-6-(2,3-dimethylphenyl)pyrimidine-2,4-diamine] | < 200 nM
29 | COc1ccc2[nH]cc(CCNc3cc(-c4cccc(C)c4C)nc(N)n3)c2c1 [Example 520, 6-(2,3-dimethylphenyl)-4-N-[2-(5-methoxy-1H-indol-3-yl)ethyl]pyrimidine-2,4-diamine] | < 200 nM
30 | Cc1cccc(-c2cc(NCCc3c[nH]c4c(C)cccc34)nc(N)n2)c1C [Example 521, 6-(2,3-dimethylphenyl)-4-N-[2-(7-methyl-1H-indol-3-yl)ethyl]pyrimidine-2,4-diamine] | < 200 nM
31 | Cc1cccc(-c2cc(NCCc3c[nH]c4c(OCc5ccccc5)cccc34)nc(N)n2)c1C [Example 522, 4-N-{2-[7-(benzyloxy)-1H-indol-3-yl]ethyl}-6-(2,3-dimethylphenyl)pyrimidine-2,4-diamine] | < 200 nM
